Experimental data from ChEMBL document CHEMBL5042484, “Design of SARS-CoV-2 PLpro Inhibitors for COVID-19 Antiviral Therapy Leveraging Binding Cooperativity” (J Med Chem, 2022).
pEC50: −log10 of the molar value.

Tested on: SARS-CoV-2
Assay: Antiviral activity against SARS-COV-2 USA/WA1/2020 in human A549 cells overexpressing ACE2 receptor assessed as reduction in viral replication at MOI of 0.01 pretreated for 1 hr followed by viral infection and further incubated for 1 hr measured after 48 hrs by RT-qPCR analysis
Assay type: functional, organism-based
Details: Severe acute respiratory syndrome coronavirus 2, USA/WA1/2020, A549

| Structure (SMILES) | pEC50 |
| --- | --- |
| Cc1ccc(NC2CNC2)cc1C(=O)N[C@H](C)c1cccc(-c2ccc(CNC3CCCC3)s2)c1 | 5.85 |
| Cc1ccc(NC2CNC2)cc1C(=O)N[C@H](C)c1cccc(-c2ccc(CN3CCCC3)s2)c1 | 5.92 |
| Cc1ccc(N)cc1C(=O)N[C@H](C)c1cccc2ccccc12 | < 4.70 |
